Experimental data published in patent US10039845B2, “Labeled inhibitors of prostate specific membrane antigen (PSMA) biological evaluation, and use of imaging agents” (THE JOHNS HOPKINS UNIVERSITY, priority 2007, dated 2018).

Key:
PSMA = target: T1, PSMA (Homo sapiens, UniProt Q04609); assay: NAALADase assay (NAAG hydrolysis, LNCaP cell extracts); assay type: biochemical; conditions: for Ki: LNCaP cell extracts, Cheng-Prusoff conversion, read-out: Ki (PSMA inhibitory activity)
T1 construct: LNCaP cell extracts were prepared by sonication in NAALADase buffer; endogenous in cells; host or cells: LNCaP cell extract (sonicated in 50 mM Tris pH 7.4, 0.5% Triton X-100)
Experimental: The relative binding affinities of L1-L7 and ReL1-ReL7, were determined using the N-acetylated-α-linked acidic dipeptidase (NAALADase) assay as previously described.
NAAG hydrolysis was performed essentially as described previously (Robinson, M. B.; et al. J Biol Chem 1987, 262, 14498-14506; Lupold, S. E.; et al. Cancer Res 2002, 62, 4029-4033.). In short, LNCaP cell extracts were prepared by sonication in NAALADase buffer [50 mM Tris (pH 7.4) and 0.5% Triton X-100]. Cell lysates were incubated with or without inhibitor at 37° C. for 10 minutes. Following the incubation the radiolabeled substrate N-acetyl-L-aspartyl-L-(3,4-^3H)glutamate (NEN Life Science Products, Boston, Mass.) was added to a final concentration of 30 nM at 37° C. for 10-15 min. The reaction was stopped by the addition of an equal volume of ice-cold 100 mM sodium phosphate and 2 mM EDTA. Products were partitioned by AG 1-X8 formate resin (Bio-Rad Laboratories) anion exchange chromatography, eluted with 1 M sodium formate, and quantified by liquid scintillation counting. […] Assays were performed in triplicate with the entire inhibition study being repeated at least once to confirm affinity and mode of inhibition. Data were collected during linear phase of hydrolysis (i.e., <20% cleavage of total substrate). Enzyme inhibitory constants (Ki values) were generated using the Cheng-Prusoff conversion (Cheng, Y.; Prusoff, W. H. Biochem Pharmcol 1973, 22, 3099-3108).

[1] = system: PSMA+ PC3 PIP and PSMA− PC3 flu xenografts; conditions: for PIP (PSMA+) tumor uptake on SPECT-CT: SCID mice, 0.5-1 mCi i.v., imaged at 45 min p.i.; for uptake in normal organs (gallbladder, liver, kidneys) on SPECT-CT: mouse, in vivo, iv; for tumor contrast on late SPECT-CT images: several hours after injection (3.5-4 h uptake period)
[2] = Metabolite studies (HPLC of tissue extracts, plasma, urine); assay type: in vivo, mice
Experimental: Mice were sacrificed at either 30 min or 1 h postinjection by cervical dislocation and their blood and selected organs were removed. Blood samples were withdrawn using heparinized syringes and tissues were placed on ice prior to manual homogenization in PBS, pH 7.4. Plasma and tissue homogenates in PBS were centrifuged for 2 min at 13,000×g at ambient temperature. A portion of the supernatant was diluted to 4 mL in 8 M urea containing 50 mg citric acid. Urine samples were added directly to 4 mL of the acidified urea solution. Samples then underwent separation by HPLC as previously described (Hilton, J.; et al. Nucl Med Biol 2000, 27, 627-630). Briefly, the 4 mL sample in 8 M acidified urea was passed through a capture column (Strata-X, 19×4.4 mm, Phenomenex, Torrance, Calif.) at 2 mL/min followed by 1% acetonitrile in water to wash plasma proteins from the column. The effluent from the capture column, containing only highly polar components, flowed through a dual BGO detector (Bioscan, Washington, D.C.) operating in the […]. The solvent was then switched to 30% acetonitrile:50 mM phosphate buffer at pH 2.4 (2 mL/min) for elution of the radiolabeled components previously bound to the capture column onto the analytical column (Synergi Polar-RP 250×4.6 mm 10 micron particle size Phenomenex).

[3] = system: PSMA+ PC3 PIP and PSMA− PC3 flu xenografts; conditions: mouse, in vivo

T1 sequence (Q04609 whole entry): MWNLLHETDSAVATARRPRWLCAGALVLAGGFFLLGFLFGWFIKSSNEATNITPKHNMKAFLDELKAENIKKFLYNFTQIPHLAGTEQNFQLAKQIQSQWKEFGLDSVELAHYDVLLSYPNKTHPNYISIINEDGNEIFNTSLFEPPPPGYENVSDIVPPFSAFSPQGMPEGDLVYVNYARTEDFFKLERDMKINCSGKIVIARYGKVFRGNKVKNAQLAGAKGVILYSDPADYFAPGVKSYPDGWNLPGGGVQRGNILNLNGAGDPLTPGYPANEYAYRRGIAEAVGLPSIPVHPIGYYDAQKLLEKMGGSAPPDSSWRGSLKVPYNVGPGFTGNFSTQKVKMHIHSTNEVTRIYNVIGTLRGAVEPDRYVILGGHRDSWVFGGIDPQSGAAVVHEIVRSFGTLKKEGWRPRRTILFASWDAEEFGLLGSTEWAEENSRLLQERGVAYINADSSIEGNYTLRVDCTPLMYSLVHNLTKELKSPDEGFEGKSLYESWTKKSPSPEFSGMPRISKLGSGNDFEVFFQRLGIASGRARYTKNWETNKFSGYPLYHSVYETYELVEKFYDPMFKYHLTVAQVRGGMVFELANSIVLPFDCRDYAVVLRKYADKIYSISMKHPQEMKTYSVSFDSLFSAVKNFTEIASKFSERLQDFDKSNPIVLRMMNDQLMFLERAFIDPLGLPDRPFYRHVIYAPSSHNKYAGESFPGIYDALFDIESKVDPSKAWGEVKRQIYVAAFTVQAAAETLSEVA

## O=C(O)CCC(NC(=O)NC(CCCCNC(=O)CCCCCCC(=O)NCCCCC(C(=O)O)N(Cc1ccccn1)Cc1ccccn1)C(=O)O)C(=O)O (centres unmarked) [Compound L3, 2-[3-(5-{7-[5-(Bis-pyridin-2-ylmethyl-amino)-5-carboxy-pentylcarbamoyl]-heptanoylamino}-1-carboxy-pentyl)-ureido]-pentanedioic acid]
PSMA
  Ki: 1.08 nM

## O=C(O)CCC(NC(=O)NC(CCCCNC(=O)CCCCCCC(=O)NCCCCCCN(CC(=O)O)Cc1ccccn1)C(=O)O)C(=O)O (centres unmarked) [Compound L4, 2-[3-(1-Carboxy-5-{7-[6-(carboxymethyl-pyridin-2-ylmethyl-amino)-hexylcarbamoyl]-heptanoylamino}-pentyl)-ureido]-pentanedioic acid]
PSMA
  Ki: 2.54 nM

## O=C(O)CCC(NC(=O)NC(CCCCNC(=O)CCCCCCCN(Cc1ccccn1)Cc1ccccn1)C(=O)O)C(=O)O (centres unmarked) [Compound L5, 2-(3-{5-[8-(Bis-pyridin-2-ylmethyl-amino)-octanoylamino]-1-carboxy-pentyl}-ureido)-pentanedioic acid]
PSMA
  Ki: 1.86 nM

## O=C(O)CCC(NC(=O)NC(CCCCN(Cc1ccccn1)Cc1ccccn1)C(=O)O)C(=O)O (centres unmarked) [Compound L6, 2-{3-[5-(Bis-pyridin-2-ylmethyl-amino)-1-carboxy-pentyl]-ureido}-pentanedioic acid]
PSMA
  Ki: 7.53 nM

## O=C(O)CCC(NC(=O)NC(CCCCNC(=O)CCCCCCC(=O)NCCCCCCN(Cc1ccccn1)Cc1ccccn1)C(=O)O)C(=O)O (centres unmarked) [Compound L7, 2-[3-(5-{7-[6-(Bis-pyridin-2-ylmethyl-amino)-hexylcarbamoyl]-heptanoylamino}-1-carboxy-pentyl)-ureido]-pentanedioic acid]
PSMA
  Ki: 0.45 nM

## O=C(O)CCC(NC(=O)NC(CCCCNC(=O)CCCCCCC(=O)NC(CCCCNC(=O)CN1CCN(CC(=O)O)CCN(CC(=O)O)CCN(CC(=O)O)CC1)C(=O)O)C(=O)O)C(=O)O (centres unmarked) [DOTA-L1, 2-{3-[1-Carboxy-5-(7-{1-carboxy-5-[2-(4,7,10-tris-carboxymethyl-1,4,7,10tetraaza-cyclododec-1-yl)-acetylamino]-pentylcarbamoyl}-heptanoylamino)-pentyl]-ureido}-pentanedioic acid]
PSMA
  IC50: 0.8 nM

## O=C(O)CCC(NC(=O)NC(CCCCNC(=O)CCCCCCC(=O)NCCCCC(C(=O)O)N(Cc1ccccn1)Cc1ccccn1)C(=O)O)C(=O)O.[Br-].[C-]#[O+].[C-]#[O+].[C-]#[O+].[Re+] (stereo not drawn) [ReL3, Tricarbonyl(2-[3-(5-{7-[5-(bis-pyridin-2-ylmethyl-amino)-5-carboxy-pentylcarbamoyl]-heptanoylamino}-1-carboxy-pentyl)-ureido]-pentanedioic acid)rehenium bromide]
PSMA
  Ki: 10.3 nM

## O=C(O)CCC(NC(=O)NC(CCCCNC(=O)CCCCCCC(=O)NCCCCCCN(CC(=O)[O][Re])Cc1ccccn1)C(=O)O)C(=O)O.[C-]#[O+].[C-]#[O+].[C-]#[O+] (stereo not drawn) [ReL4, Tricarbonyl(2-[3-(1-carboxy-5-{7-[6-(carboxymethyl-pyridin-2-ylmethyl-amino)-hexylcarbamoyl]-heptanoylamino}-pentyl)-ureido]-pentanedioic acid) rhenium]
PSMA
  Ki: 0.17 nM
PSMA; relative to ReL7
  fold higher PSMA inhibitory potency than ReL7: about 12 fold

## O=C(O)CCC(NC(=O)NC(CCCCNC(=O)CCCCCCCN(Cc1ccccn1)Cc1ccccn1)C(=O)O)C(=O)O.[Br-].[C-]#[O+].[C-]#[O+].[C-]#[O+].[Re+] (stereo not drawn) [ReL5, Tricarbonyl(2-(3-{5-[8-(bis-pyridin-2-ylmethyl-amino)-octanoylamino]-1-carboxy-pentyl}-ureido)-pentanedioic acid)rhenium bromide]
PSMA
  Ki: 0.91 nM

## O=C(O)CCC(NC(=O)NC(CCCCN(Cc1ccccn1)Cc1ccccn1)C(=O)O)C(=O)O.[Br-].[C-]#[O+].[C-]#[O+].[C-]#[O+].[Re+] (stereo not drawn) [ReL6, Tricarbonyl(2-{3-[5-(bis-pyridin-2-ylmethyl-amino)-1-carboxy-pentyl]-ureido}-pentanedioic acid)rhenium bromide]
PSMA
  Ki: 200 nM

## O=C(O)CCC(NC(=O)NC(CCCCNC(=O)CCCCCCC(=O)NCCCCCCN(Cc1ccccn1)Cc1ccccn1)C(=O)O)C(=O)O.[Br-].[C-]#[O+].[C-]#[O+].[C-]#[O+].[Re+] (stereo not drawn) [ReL7, Tricarbonyl(2-[3-(5-{7-[6-(Bis-pyridin-2-ylmethyl-amino)-hexylcarbamoyl]-heptanoylamino}-1-carboxy-pentyl)-ureido]-pentanedioic acid)rhenium bromide]
PSMA
  Ki: 2.06 nM

## O=C(O)CC[C@H](NC(=O)N[C@@H](CCCCNC(=O)CCCCCCC(=O)N[C@@H](CCCCN(Cc1ccccn1)Cc1ccccn1)C(=O)O)C(=O)O)C(=O)O.[99Tc+].[C-]#[O+].[C-]#[O+].[C-]#[O+] [[^99mTc]L1]
[1]
  PIP (PSMA+) tumor uptake on SPECT-CT: strongly positive PIP tumor
  uptake in normal organs (gallbladder, liver, kidneys) on SPECT-CT: gallbladder uptake and clear visualization of the kidneys
  tumor contrast on late SPECT-CT images: higher contrast of tumor with respect to background
[2]; all other tissue extracts, plasma and urine at 30 and 60 min postinjection
  chromatographed radioactivity as the parent compound: 100%
[2]; mouse kidney extracted 60 min after injection
  extracted radioactivity as a polar metabolite: 2%

## O=C(O)CC[C@H](NC(=O)N[C@@H](CCCCNC(=O)CCCCCCC(=O)N[C@@H](CCCCN(Cc1ccc2ccccc2n1)Cc1ccc2ccccc2n1)C(=O)O)C(=O)O)C(=O)O.[99Tc+].[C-]#[O+].[C-]#[O+].[C-]#[O+] [[^99mTc]L2]
[1]
  PIP (PSMA+) tumor uptake on SPECT-CT: weak PIP tumor uptake
  uptake in normal organs (gallbladder, liver, kidneys) on SPECT-CT: strong gallbladder uptake and kidney uptake

## O=C(O)CCC(NC(=O)NC(CCCCNC(=O)CCCCCCC(=O)NCCCCC(C(=O)O)N(Cc1ccccn1)Cc1ccccn1)C(=O)O)C(=O)O.[99Tc+].[C-]#[O+].[C-]#[O+].[C-]#[O+] (centres unmarked) [[^99mTc]L3]
[3]
  PIP:flu uptake ratio, held steady: around 5
[1]
  PIP (PSMA+) tumor uptake on SPECT-CT: strong PIP tumor uptake
  uptake in normal organs (gallbladder, liver, kidneys) on SPECT-CT: gallbladder uptake and clear visualization of the kidneys
  tumor contrast on late SPECT-CT images: higher contrast of tumor with respect to background

## O=C(O)CC[C@H](NC(=O)N[C@@H](CCCCNC(=O)CCCCCCCN(Cc1ccccn1)Cc1ccccn1)C(=O)O)C(=O)O.[99Tc+].[C-]#[O+].[C-]#[O+].[C-]#[O+] [[^99mTc]L5]
[1]
  PIP (PSMA+) tumor uptake on SPECT-CT: qualitatively similar to [^99mTc]L4

## O=C(O)CC[C@H](NC(=O)N[C@@H](CCCCN(Cc1ccccn1)Cc1ccccn1)C(=O)O)C(=O)O.[99Tc+].[C-]#[O+].[C-]#[O+].[C-]#[O+] [[^99mTc]L6]
[1]
  PIP (PSMA+) tumor uptake on SPECT-CT: no PIP tumor-specific uptake

## Tricarbonyl (2-[3-(5-{7-[5-(bis-pyridin-2-ylmethyl-amino)-1-carboxy-pentylcarbamoyl]-heptanoylamino}-1-carboxy-pentyl)-ureido]-pentanedioic acid) rhenium bromide [ReL1]
PSMA
  Ki: 10.8 nM
